Data published in patent publication US6582952B1 (priority 1997, dated 2003).
Entries after “also recorded” stand apart in the source; their conditions may differ.

Tested on: Bacillus licheniformis

## Nc1n[nH]c(=O)[nH]1 [amine, 5-amino-1,2,4-triazole-3-one]
  stability of the amine formed in the incubation mixture: does not undergo any subsequent transformation; also recorded: stable
